Results taken from US12606528B2, “Methods and materials for inhibiting NF-kB activity” (University of Pittsburgh - Of the Commonwealth System of …, priority 2019, dated 2026).
Where two headings read alike, the source gives them in different places.

Test system: NF-κB
Test: NF-κB assay: THP1-NF-κB-LUC cells, LPS-stimulated secreted luciferase
Type: cell-based
Conditions: read-out: IC50 (NF-κB assay)
Protocol: FIG. 1 contains line plots showing NF-κB activity of exemplified compounds. 25k THP1-NF-κB-LUC cells were dispensed into 384 well plate (per well). Cells were treated with compounds (2 μM and 0.2 μM) for 2 hours before addition of LPS (10 ng/mL) for 18 hours. Secreted luciferase activity were measured using quant-luc reagents (1 bag of luc reagent dilute to 40 mL, use 10 μL per well). Data were normalized to vehicle control and graphed. Structures of selected exemplified compounds are shown.
FIG. 2 contains heat charts showing NF-κB activity of exemplified compounds as a function of concentration. 25k THP1-NF-κB-LUC cells were dispensed into 384 well plate (per well). Cells were treated with compounds (with serial dilution) for 2 hours before addition of LPS (10 ng/ml) for 18 hours. Secreted luciferase activity were measured using quant-luc reagents (1 bag of luc reagent dilute to 40 mL, use 10 μL per well). Structures of selected exemplified compounds are shown.
25k THP1-NF-κB-LUC cells were dispensed into 384 well plate (per well). Cells were treated with compounds with various concentrations for 2 hours before addition of LPS (10 ng/mL) for 18 hours. Secreted luciferase activity were measured using quant-luc reagents (1 bag of luc reagent dilute to 40 mL, use 10 μL per well). Data were normalized to vehicle control and graphed. Compound IC50 towards inhibiting NF-κB were determined through Prism. Similarly, 10k human PBMCs cells were cultured in 384 well plate (per well). Cells were treated with compounds with various concentrations for 2 hours before addition of LPS (10 ng/ml) for 18 hours, and supernatants were collected and assayed for TNF ELISA. Compound IC50 towards inhibiting TNF release were determined through Prism. • Activity: “+”>10 μM, “++”>1 μM and <10 μM, “+++”>0.1 μM and <1 μM, “++++”<0.1 μM.

[1] = THP1-NF-κB-LUC cells, LPS-stimulated
[2] = THP1-NF-κB-LUC cells, compounds 2 hours before LPS (10 ng/mL) for 18 hours, secreted luciferase

Compound | IC50 [1] [µM] | IC50 [2] [µM] | other results
O=C(NCc1ccc(Cl)cc1)c1ccc2nc(-c3ccccc3)c(-c3ccccc3)nc2c1 [BC18421] | > 10 |  | 
CCCS(=O)(=O)c1oc(-c2ccc(F)cc2)nc1S(=O)(=O)c1ccc(Cl)cc1 [BC18533] | < 0.1 |  | 
CCCN1CCN(C(=O)c2ccc3nc(-c4ccccc4)c(-c4ccccc4)nc3c2)CC1 [BC18440] | < 0.1 |  | 
CC(C)CSc1oc(-c2ccc(F)cc2)nc1S(=O)(=O)c1ccccc1 [BC18527] | 1 to 10 |  | 
CCCS(=O)(=O)c1oc(-c2ccc(F)cc2)nc1S(=O)(=O)c1ccc(F)cc1 [BC18543] | < 0.1 |  | 
CC(C)NC(=O)c1ccc2nc(-c3ccc(F)cc3)c(-c3ccc(F)cc3)nc2c1 [BC18403] | < 0.1 |  | 
C=CCN(CC=C)C(=O)c1ccc2nc(-c3ccccc3)c(-c3ccccc3)nc2c1 [BC18423] | < 0.1 |  | 
CC(C)(C)c1ccc(S(=O)(=O)c2c[nH]c3ccc(Br)cc3c2=O)cc1 [BC18322] |  | 1 to 10 | 
CC(C)CSc1oc(-c2ccc(F)cc2)nc1S(=O)(=O)c1ccc(Cl)cc1 [BC18541] | > 10 |  | 
Cc1cccc(CNC(=O)c2ccc3nc(-c4ccc(F)cc4)c(-c4ccc(F)cc4)nc3c2)c1 [BC18424] | 0.1 to 1 |  | 
CCCN1CCN(CCCNC(=O)c2ccc3nc(-c4ccccc4)c(-c4ccccc4)nc3c2)CC1 [BC18418] | 0.1 to 1 |  | 
O=C(c1ccc2nc(-c3ccccc3)c(-c3ccccc3)nc2c1)N1CCCC1 [BC18409] | < 0.1 |  | 
CCc1ccc(S(=O)(=O)c2c[nH]c3ccc(F)cc3c2=O)cc1 [BC18321] |  | 0.1 to 1 | 
CC(C)Sc1oc(-c2ccc(F)cc2)nc1S(=O)(=O)c1ccc(Cl)cc1 [BC18507] | 1 to 10 |  | 
N#Cc1ccc2[nH]cc(S(=O)(=O)c3cc(Cl)cc(Cl)c3)c(=O)c2c1 [BC18305] |  | 0.1 to 1 | 
O=C(NCCN1CCCCCC1)c1ccc2nc(-c3ccccc3)c(-c3ccccc3)nc2c1 [BC18461] | < 0.1 |  | 
CCN(CC)CCCNC(=O)c1ccc2nc(-c3ccc(F)cc3)c(-c3ccc(F)cc3)nc2c1 [BC18469] | < 0.1 |  | 
CCN(CC)CCNC(=O)c1ccc2nc(-c3ccccc3)c(-c3ccccc3)nc2c1 [BC18428] | < 0.1 |  | 
N#Cc1ccc(S(=O)(=O)c2c[nH]c3cc(F)ccc3c2=O)cc1F [BC18339] |  | 0.1 to 1 | 
CCCCS(=O)(=O)c1oc(-c2ccc(F)cc2)nc1S(=O)(=O)c1ccc(Cl)cc1 [BC18544] | 0.1 to 1 |  | 
N#Cc1cccc(S(=O)(=O)c2cc3cc(Br)ccc3oc2=O)c1 [BC18317] |  | > 10 | 
CC(=O)N1CCOc2cc(S(=O)(=O)Nc3ccccc3C)c(C)cc21 [BC181351] |  |  | IC50: > 10 µM

Compound | IC50 [1] [µM] | IC50 [2] [µM] | other results
CCCCSc1oc(-c2ccc(F)cc2)nc1S(=O)(=O)c1ccc(C)cc1 [BC18505] | 1 to 10 |  | 
CCC1CCN(CCNC(=O)c2ccc3nc(-c4ccccc4)c(-c4ccccc4)nc3c2)CC1 [BC18406] | < 0.1 |  | 
O=C(CSc1oc(-c2ccc(F)cc2)nc1S(=O)(=O)c1ccccc1)c1ccc(Cl)cc1 [BC18516] | 1 to 10 |  | 
O=C(c1ccc2nc(-c3ccccc3)c(-c3ccccc3)nc2c1)N1CCOCC1 [BC18429] | < 0.1 |  | 
CSc1oc(-c2ccc(F)cc2)nc1S(=O)(=O)c1ccccc1 [BC18515] | > 10 |  | 
CC(C)S(=O)(=O)c1oc(-c2ccc(F)cc2)nc1S(=O)(=O)c1ccc(Br)cc1 [BC18511] | < 0.1 |  | 
COc1ccc(S(=O)(=O)c2cn(CC(=O)Nc3ccc(C)cc3)c3ccc(F)cc3c2=O)cc1 [BC18330] |  | > 10 | 
CCSc1oc(-c2ccc(C)cc2)nc1S(=O)(=O)c1ccc(F)cc1 [BC18514] | 1 to 10 |  | 
CCN1CCN(CCNC(=O)c2ccc3nc(-c4cccc(C)c4)c(-c4cccc(C)c4)nc3c2)CC1 [BC18452] | 1 to 10 |  | 
CCOc1ccccc1CNC(=O)c1ccc2nc(-c3ccc(F)cc3)c(-c3ccc(F)cc3)nc2c1 [BC18401] | 0.1 to 1 |  | 
CCc1ccc(S(=O)(=O)c2cn(CCO)c3cc(F)c(F)cc3c2=O)cc1 [BC18331] |  | > 10 | 
Cc1ccc(CNC(=O)c2ccc3nc(-c4ccc(C)cc4)c(-c4ccc(C)cc4)nc3c2)cc1 [BC18433] | > 10 |  | 
Cc1cccc(-c2nc3ccc(C(=O)NCCN4CCN(C)CC4)cc3nc2-c2cccc(C)c2)c1 [BC18463] | 1 to 10 |  | 
Cc1ccc(S(=O)(=O)c2cc3cc(Br)ccc3oc2=O)cc1Cl [BC18314] |  | > 10 | 
O=C(c1ccc2nc(-c3ccccc3)c(-c3ccccc3)nc2c1)N1CCN(c2ccccn2)CC1 [BC18476] | 0.1 to 1 |  | 
CNC(=O)c1ccc2nc(-c3ccccc3)c(-c3ccccc3)nc2c1 [BC18450] | < 0.1 |  | 
CC(=O)CSc1oc(-c2ccccc2)nc1S(=O)(=O)c1ccc(Cl)cc1 [BC18501] | > 10 |  | 
Cc1cccc(-c2nc3ccc(C(=O)NCCN(C)C)cc3nc2-c2cccc(C)c2)c1 [BC18484] | 1 to 10 |  | 
O=C(NC1CC1)c1ccc2nc(-c3ccc(F)cc3)c(-c3ccc(F)cc3)nc2c1 [BC18448] | < 0.1 |  | 
O=C(NC1CC1)c1ccc2nc(-c3ccccc3)c(-c3ccccc3)nc2c1 [BC18439] | < 0.1 |  | 
O=C(NCCN1CCCC1)c1ccc2nc(-c3ccc(F)cc3)c(-c3ccc(F)cc3)nc2c1 [BC18449] | < 0.1 |  | 

The next lines start with results.

IC50 [1] [µM] | IC50 [2] [µM] | Compound | other results
< 0.1 |  | CS(=O)(=O)c1oc(-c2ccc(F)cc2)nc1S(=O)(=O)c1ccc(Br)cc1 [BC18566] | 
 | 1 to 10 | CC(=O)N1CCOc2cc(S(=O)(=O)Nc3ccc(Br)c(C)c3)c(C)cc21 [BC181306] | 
 | < 0.1 | Cc1cc2c(cc1S(=O)(=O)Nc1cc(F)ccc1F)OCC(=O)N2 [BC181311] | 
> 10 |  | CSc1oc(-c2ccc(F)cc2)nc1S(=O)(=O)c1ccc(F)cc1 [BC18550] | 
 | > 10 | COc1cc(NS(=O)(=O)c2cc3c(cc2C)NC(=O)CO3)cc(OC)c1 [BC181301] | 
 | 1 to 10 | Cc1cc2c(cc1S(=O)(=O)Nc1cc(C(F)(F)F)cc(C(F)(F)F)c1)OCC(=O)N2 [BC181365] | 
 | 1 to 10 | CCOC(=O)c1cccc(NS(=O)(=O)c2cc3c(cc2C)NC(=O)CO3)c1 [BC181334] | 
1 to 10 |  | CC(C)CSc1oc(-c2ccccc2)nc1S(=O)(=O)c1ccc(F)cc1 [BC18578] | 
 | < 0.1 | Cc1ccc(NS(=O)(=O)c2cc3c(cc2C)NC(=O)CO3)cc1F [BC181353] | 
1 to 10 |  | CC(C)Sc1oc(-c2ccc(F)cc2)nc1S(=O)(=O)c1ccc(F)cc1 [BC18583] | 
> 10 |  | Cc1ccc(-c2nc(S(=O)(=O)c3ccc(Cl)cc3)c(SCC(C)C)o2)cc1 [BC18580] | 
 | > 10 | Cc1cccc(NS(=O)(=O)c2cc3c(cc2C)N(C)CCO3)c1 [BC181320] | 
 | < 0.1 | Cc1cc2c(cc1S(=O)(=O)Nc1ccc(Cl)cc1)OCC(=O)N2 [BC181355] | 
 | 1 to 10 | Cc1cc2c(cc1S(=O)(=O)Nc1cccc(C)c1C)OCC(=O)N2 [BC181312] | 
 | < 0.1 | Cc1ccc(NS(=O)(=O)c2cc3c(cc2C)NC(=O)CO3)cc1Cl [BC181305] | 
 | 1 to 10 | Cc1cc2c(cc1S(=O)(=O)Nc1ccc(C(C)C)cc1)OCCN2C [BC181384] | 
 | > 10 | COc1ccc(N(C)S(=O)(=O)c2cc3c(cc2C)NC(=O)CO3)c(OC)c1 [BC181327] | 

IC50 [1] [µM] | IC50 [2] [µM] | Compound | other results
 | < 0.1 | Cc1cc2c(cc1S(=O)(=O)Nc1ccc(C(C)C)cc1)OCC(=O)N2 [BC181336] | 
 | 1 to 10 | CC(=O)N1CCOc2cc(S(=O)(=O)Nc3ccc(C(C)C)cc3)c(C)cc21 [BC181362] | 
 | 1 to 10 | CCCN(c1ccccc1OC)S(=O)(=O)c1cc2c(cc1C)NC(=O)CO2 [BC181338] | 
 | 0.1 to 1 | Cc1cc2c(cc1S(=O)(=O)Nc1ccc(F)cc1Cl)OCC(=O)N2 [BC181375] | 
 | 1 to 10 | Cc1ccc(Cl)cc1NS(=O)(=O)c1cc2c(cc1C)NC(=O)CO2 [BC181366] | 
< 0.1 |  | O=S(=O)(Cc1ccccc1F)c1oc(-c2ccc(F)cc2)nc1S(=O)(=O)c1ccccc1 [BC18564] | 
 | > 10 | CC(=O)c1ccc(NS(=O)(=O)c2cc3c(cc2C)N(C(C)=O)CCO3)cc1 [BC181371] | 
 | > 10 | COc1ccc(NS(=O)(=O)c2cc3c(cc2C)N(C(C)=O)CCO3)cc1 [BC181328] | 
 | < 0.1 | CSc1cccc(NS(=O)(=O)c2cc3c(cc2C)NC(=O)CO3)c1 [BC181314] | 
 | 0.1 to 1 | Cc1cc2c(cc1S(=O)(=O)Nc1ccc(F)c(F)c1)OCC(=O)N2 [BC181364] | 
 | > 10 | COc1ccc(NS(=O)(=O)c2cc3c(cc2C)NC(=O)CO3)cc1OC [BC181322] | 
> 10 |  | CCCSc1oc(-c2ccc(C)cc2)nc1S(=O)(=O)c1ccc(Cl)cc1 [BC18558] | 
> 10 |  | CCCSc1oc(-c2ccc(F)cc2)nc1S(=O)(=O)c1ccc(Br)cc1 [BC18574] | 
> 10 |  | CCCSc1oc(-c2ccccc2)nc1S(=O)(=O)c1ccc(F)cc1 [BC18567] | 
 | > 10 | Cc1cccc(N(C)S(=O)(=O)c2cc3c(cc2C)NC(=O)CO3)c1 [BC181359] | 
 | > 10 | CCN(c1ccc(OC)cc1)S(=O)(=O)c1cc2c(cc1C)NC(=O)CO2 [BC181349] | 
1 to 10 |  | O=S(=O)(c1ccccc1)c1nc(-c2ccc(F)cc2)oc1SCc1ccc(F)cc1 [BC18581] | 
